# Target: T1, BTK (C481S) (Homo sapiens, UniProt Q06187, C481S)
# T1 construct: purchased SignalChem B10-12CH
# Assay: Kinase assay of BTK (C481S), [33P]-ATP filter-binding, Reaction Biology Corporation
# Assay type: biochemical
# Settings: 6 nM BTK (C481S), 0.2 mg/ml pEY substrate, 10 μM ATP, 20 min preincubation, 120 min reaction at room temperature
# Description: The kinase activity of BTK (C481S) was assayed at Reaction Biology Corporation. The substrate in the BTK (C481S) reaction, pEY (poly[Glu:Tyr] (4:1)) (Sigma, Cat. #P7244-250MG), was prepared in fresh reaction buffer (20 mM Hepes (pH 7.5), 10 mM MgCl2, 1 mM EGTA, 0.02% Brij35, 0.02 mg/mi BSA, 0.1 mM Na3VO4, 2 mM DTT, 1% DMSO). BTK(C481S) (SignalChem, Cat. #B10-12CH) was delivered into the substrate solution and mixed gently. The final concentrations of BTK (C481S) and the substrate in the reaction mixture were 6 nM and 0.2 mg/ml, respectively. Compounds were tested in 10-point concentration/response mode with 3-fold serial dilution steps starting at 1 μM.
# Compounds in 100% DMSO were delivered into the kinase reaction mixture by acoustic liquid delivery technology (Echo550; nanoliter range) and incubated for 20 min at room temperature. 10 μM [^33P]-ATP (ATP: Sigma, Cat #: A7699; [^33P]-ATP: Hartmann Analytic, Cat #: SCF-301-12) was delivered into the reaction mixture to initiate the reaction. The mixture was incubated for 120 min at room temperature. Radioactivity was detected utilizing a proprietary filter-binding method. Kinase activity data were expressed as the percent remaining kinase activity in test samples compared to vehicle (DMSO) reactions. IC50 values were obtained using GraphPad Prism software.
# Select compounds prepared as described above were assayed according to the biological procedures described herein.
# T1 sequence (Q06187 whole entry C481S): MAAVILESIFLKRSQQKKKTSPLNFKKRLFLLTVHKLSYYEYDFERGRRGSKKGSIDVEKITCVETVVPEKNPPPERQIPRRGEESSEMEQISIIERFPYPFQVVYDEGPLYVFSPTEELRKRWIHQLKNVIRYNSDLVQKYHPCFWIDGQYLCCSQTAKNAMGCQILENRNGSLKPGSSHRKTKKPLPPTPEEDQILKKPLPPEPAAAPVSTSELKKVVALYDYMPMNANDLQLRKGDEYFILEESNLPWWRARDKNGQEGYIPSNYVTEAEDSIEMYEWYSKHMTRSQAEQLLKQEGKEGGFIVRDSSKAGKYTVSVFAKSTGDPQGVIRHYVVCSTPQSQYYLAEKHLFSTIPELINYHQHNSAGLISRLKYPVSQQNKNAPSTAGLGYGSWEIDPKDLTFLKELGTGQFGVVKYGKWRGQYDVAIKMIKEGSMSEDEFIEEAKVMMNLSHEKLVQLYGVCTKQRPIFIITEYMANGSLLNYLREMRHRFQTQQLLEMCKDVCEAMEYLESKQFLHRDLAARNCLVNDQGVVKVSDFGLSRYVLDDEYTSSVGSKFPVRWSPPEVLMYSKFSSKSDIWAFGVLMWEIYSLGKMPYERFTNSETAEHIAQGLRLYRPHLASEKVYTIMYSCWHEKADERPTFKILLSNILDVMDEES
row,IC50 [nM],Compound
1,5,"COc1ccccc1C(=O)NCc1ccc(-n2cc(C3CCCC3)c3c(=O)[nH]nc(N)c32)cc1 [Example 1, N-(4-(7-amino-3-cyclopentyl-4-oxo-4,5-dihydro-1H-pyrrolo[2,3-d]pyridazin-1-yl)benzyl)-2-methoxybenzamide]"
2,3.3,"COc1ccccc1C(=O)NCc1ccc(-n2nc(C3CCCC3)c3c(=O)[nH]nc(N)c32)cc1 [Example 2, N-(4-(7-amino-3-cyclopentyl-4-oxo-4,5-dihydro-1H-pyrazolo[3,4-d]pyridazin-1-yl)benzyl)-2-methoxybenzamide]"
3,6.5,"COc1ccccc1C(=O)NCc1ccc(-c2cn(C3CCCC3)c3c(=O)[nH]nc(N)c23)cc1 [Example 4, N-(4-(4-amino-1-cyclopentyl-7-oxo-6,7-dihydro-1H-pyrrolo[2,3-d]pyridazin-3-yl)benzyl)-2-methoxybenzamide]"
4,8,"COc1ccccc1C(=O)NCc1ccc(-c2nn(C3CCCC3)c3c(=O)[nH]nc(N)c23)cc1 [Example 5, N-(4-(4-amino-1-cyclopentyl-7-oxo-6,7-dihydro-1H-pyrazolo[3,4-d]pyridazin-3-yl)benzyl)-2-methoxybenzamide]"
5,7.8,"COc1ccccc1C(=O)NCc1ccc(-c2nc(C3CCCC3)n3ncnc(N)c23)cc1 [Example 6, N-(4-(4-amino-7-cyclopentylimidazo[5,1-f][1,2,4]triazin-5-yl)benzyl)-2-methoxybenzamide]"
6,3,"COc1ccccc1C(=O)NCc1ccc(-c2nc(C3CCCC3)n3ccnc(N)c23)cc1 [Example 7, N-(4-(8-amino-3-cyclopentylimidazo[1,5-a]pyrazin-1-yl)benzyl)-2-methoxybenzamide]"

# System: OCI-LY10 cells
# Assay: Cell proliferation assay (MTS) in OCI-LY10 cells
# Assay type: cell-based
# Settings: Homo sapiens; inhibition of OCI-LY10 cells proliferation, 72 h incubation, MTS, absorbance at 490 nm; read-out: OCI-LY10 IC50
# Text: MTS testing kit was purchased from Promega (Madison, Wis., USA). The RPMI-1640, Fetal bovine serum and Penicillin-Streptomycin were purchased from BI (Biological Industries, Beit Haemek, Israel). Dimethyl sulfoxide (DMSO) was purchased from Sigma (St. Louis., Mo., USA). […] To investigate whether a compound is able to inhibit the activity of BTK in cells, a mechanism-based assay using OCI-LY10 cells was developed. In this assay, inhibition of BTK was detected by the inhibition of OCI-LY10 cells proliferation. Cells were plated into 96-well plates at a density of 10000 cells/well. Plates were incubated at 37° C., with 5% CO2 for 4 h. […] Plates were incubated at 37° C., with 5% CO2 for 72 h. 20 μl MTS was added into each well and the plates were incubated at 37° C., with 5% CO2 for exactly 2 h. The absorbance was measured by a microplate reader at 490 nm. IC50 was calculated using GraphPad Prism 5.0 software. Select compounds prepared as described above were assayed according to the biological procedures described herein.
row,IC50 [nM],Compound
1,34,"COc1ccccc1C(=O)NCc1ccc(-n2nc(C3CCCC3)c3c(=O)[nH]nc(N)c32)cc1 [Example 2, N-(4-(7-amino-3-cyclopentyl-4-oxo-4,5-dihydro-1H-pyrazolo[3,4-d]pyridazin-1-yl)benzyl)-2-methoxybenzamide]"
2,1,"COc1ccc(F)cc1C(=O)NCc1ccc(-c2nn([C@@H](C(F)F)C3CC3)c3c(=O)[nH]nc(N)c23)cc1 [Example 89, (R)-N-(4-(4-amino-1-(1-cyclopropyl-2,2-difluoroethyl)-7-oxo-6,7-dihydro-1H-pyrazolo[3,4-d]pyridazin-3-yl)benzyl)-5-fluoro-2-methoxybenzamide]"
3,15,"COc1ccc(F)cc1C(=O)NCc1ccc(-n2nc(C3CCCC3(F)F)c3c(=O)[nH]nc(N)c32)cc1 (stereo not shown) [Example 90, N-(4-(7-amino-3-(2,2-difluorocyclopentyl)-4-oxo-4,5-dihydro-1H-pyrazolo [3,4-d]pyridazin-1-yl)benzyl)-5-fluoro-2-methoxybenzamide]"
4,10,"CCC(C)c1nn(-c2ccc(CNC(=O)c3cc(F)ccc3OC)cc2)c2c(N)n[nH]c(=O)c12 (stereo not shown) [Example 92a, N-(4-(7-amino-3-(sec-butyl)-4-oxo-4,5-dihydro-1H-pyrazolo[3,4-d]pyridazin-1-yl)benzyl)-5-fluoro-2-methoxybenzamide]"
5,22,"CC[C@@H](C)c1nn(-c2ccc(CNC(=O)c3cc(F)ccc3OC)cc2)c2c(N)n[nH]c(=O)c12 [Example 92b, (R)-N-(4-(7-amino-3-(sec-butyl)-4-oxo-4,5-dihydro-1H-pyrazolo[3,4-d]pyridazin-1-yl)benzyl)-5-fluoro-2-methoxybenzamide]"
6,24,"COc1ccc(F)cc1C(=O)NCc1ccc(-n2nc(CC3CC3)c3c(=O)[nH]nc(N)c32)cc1 [Example 93, N-(4-(7-amino-3-(cyclopropylmethyl)-4-oxo-4,5-dihydro-1H-pyrazolo[3,4-d]pyridazin-1-yl)benzyl)-5-fluoro-2-methoxybenzamide]"
7,1,"COc1ccc(F)cc1C(=O)NCc1ccc(-n2nc(C(C)(C)C)c3c(=O)[nH]nc(N)c32)cc1 [Example 94, N-(4-(7-amino-3-(tert-butyl)-4-oxo-4,5-dihydro-1H-pyrazolo[3,4-d]pyridazin-1-yl)benzyl)-5-fluoro-2-methoxybenzamide]"
8,1,"COc1ccc(F)cc1C(=O)NCc1ccc(-n2nc(C(C)C3CC3)c3c(=O)[nH]nc(N)c32)cc1 (stereo not shown) [Example 96, N-(4-(7-amino-3-(1-cyclopropylethyl)-4-oxo-4,5-dihydro-1H-pyrazolo[3,4-d]pyridazin-1-yl)benzyl)-5-fluoro-2-methoxybenzamide]"
9,23,"COc1ccc(F)cc1C(=O)NCc1ccc(-n2nc(C3CC(F)(F)C3)c3c(=O)[nH]nc(N)c32)cc1 [Example 97, N-(4-(7-amino-3-(3,3-difluorocyclobutyl)-4-oxo-4,5-dihydro-1H-pyrazolo[3,4-d]pyridazin-1-yl)benzyl)-5-fluoro-2-methoxybenzamide]"
10,92,"COc1ccc(F)cc1C(=O)NCc1ccc(-n2nc(C3(F)CC3)c3c(=O)[nH]nc(N)c32)cc1 [Example 98, N-(4-(7-amino-3-(1-fluorocyclopropyl)-4-oxo-4,5-dihydro-1H-pyrazolo[3,4-d]pyridazin-1-yl)benzyl)-5-fluoro-2-methoxybenzamide]"
11,65,"COc1ccc(F)cc1C(=O)NCc1ccc(-n2nc(C3CC3(F)F)c3c(=O)[nH]nc(N)c32)cc1 (stereo not shown) [Example 99, N-(4-(7-amino-3-(2,2-difluorocyclopropyl)-4-oxo-4,5-dihydro-1H-pyrazolo[3,4-d]pyridazin-1-yl)benzyl)-5-fluoro-2-methoxybenzamide]"
12,76,"COc1ccc(F)cc1C(=O)NCc1ccc(-n2c(=O)n(C3CCC3)c3c(=O)[nH]nc(N)c32)cc1 [Example 102, N-(4-(7-amino-3-cyclobutyl-2,4-dioxo-2,3,4,5-tetrahydro-1H-imidazo[4,5-d]pyridazin-1-yl)benzyl)-5-fluoro-2-methoxybenzamide]"
13,4,"COc1ccc(F)cc1C(=O)NCc1ccc(-c2cn([C@@H]3CCN(C(=O)OC(C)C)C3)c3c(=O)[nH]nc(N)c23)cc1 [Example 105, isopropyl (R)-3-(4-amino-3-(4-((5-fluoro-2-methoxybenzamido)methyl)phenyl)-7-oxo-6,7-dihydro-1H-pyrrolo[2,3-d]pyridazin-1-yl)pyrrolidine-1-carboxylate]"
14,14,"COc1ccc(F)cc1C(=O)NCc1ccc(-c2cn([C@@H]3CCN(S(=O)(=O)C(C)C)C3)c3c(=O)[nH]nc(N)c23)cc1 [Example 111, (R)-N-(4-(4-amino-1-(1-(isopropylsulfonyl)pyrrolidin-3-yl)-7-oxo-6,7-dihydro-1H-pyrrolo[2,3-d]pyridazin-3-yl)benzyl)-5-fluoro-2-methoxybenzamide]"

# The next lines start with the molecule.
row,Compound,IC50 [nM]
1,"COc1ccccc1C(=O)NCc1ccc(-n2cc(C3CCCC3)c3c(=O)[nH]nc(N)c32)cc1 [Example 1, N-(4-(7-amino-3-cyclopentyl-4-oxo-4,5-dihydro-1H-pyrrolo[2,3-d]pyridazin-1-yl)benzyl)-2-methoxybenzamide]",28
2,"COc1ccccc1C(=O)NCc1ccc(-c2cn(C3CCCC3)c3c(=O)[nH]nc(N)c23)cc1 [Example 4, N-(4-(4-amino-1-cyclopentyl-7-oxo-6,7-dihydro-1H-pyrrolo[2,3-d]pyridazin-3-yl)benzyl)-2-methoxybenzamide]",69
3,"COc1ccccc1C(=O)NCc1ccc(-c2nn(C3CCCC3)c3c(=O)[nH]nc(N)c23)cc1 [Example 5, N-(4-(4-amino-1-cyclopentyl-7-oxo-6,7-dihydro-1H-pyrazolo[3,4-d]pyridazin-3-yl)benzyl)-2-methoxybenzamide]",68
4,"COc1ccc(F)cc1C(=O)NCc1ccc(-c2cn([C@@H]3CCN(C(=O)OC4CC4)C3)c3c(=O)[nH]nc(N)c23)cc1 [Example 106, cyclopropyl (R)-3-(4-amino-3-(4-((5-fluoro-2-methoxybenzamido)methyl)phenyl)-7-oxo-6,7-dihydro-1H-pyrrolo[2,3-d]pyridazin-1-yl)pyrrolidine-1-carboxylate]",11
5,"COc1ccc(F)cc1C(=O)NCc1ccc(-c2cn([C@@H]3CCN(C(=O)N4CCC4)C3)c3c(=O)[nH]nc(N)c23)cc1 [Example 107, (R)-N-(4-(4-amino-1-(1-(azetidine-1-carbonyl)pyrrolidin-3-yl)-7-oxo-6,7-dihydro-1H-pyrrolo[2,3-d]pyridazin-3-yl)benzyl)-5-fluoro-2-methoxybenzamide]",11
6,"C=CC(=O)N1CC[C@@H](n2cc(-c3ccc(CNC(=O)c4cc(F)ccc4OC)cc3)c3c(N)n[nH]c(=O)c32)C1 [Example 109, (R)-N-(4-(1-(1-acryloylpyrrolidin-3-yl)-4-amino-7-oxo-6,7-dihydro-1H-pyrrolo [2,3-d]pyridazin-3-yl)benzyl)-5-fluoro-2-methoxybenzamide]",1
7,"CCS(=O)(=O)N1CC[C@@H](n2cc(-c3ccc(CNC(=O)c4cc(F)ccc4OC)cc3)c3c(N)n[nH]c(=O)c32)C1 [Example 110, (R)-N-(4-(4-amino-1-(1-(ethylsulfonyl)pyrrolidin-3-yl)-7-oxo-6,7-dihydro-1H-pyrrolo[2,3-d]pyridazin-3-yl)benzyl)-5-fluoro-2-methoxybenzamide]",23
8,"COc1ccc(F)cc1C(=O)NCc1ccc(-c2cn([C@@H]3CCN(S(=O)(=O)C4CC4)C3)c3c(=O)[nH]nc(N)c23)cc1 [Example 112, (R)-N-(4-(4-amino-1-(1-(cyclopropylsulfonyl)pyrrolidin-3-yl)-7-oxo-6,7-dihydro-1H-pyrrolo[2,3-d]pyridazin-3-yl)benzyl)-5-fluoro-2-methoxybenzamide]",2

# Source: patent US20230145305A1, “COMPOUNDS USEFUL AS KINASE INHIBITORS” (Fochon Biosciences, Ltd., priority 2020, published 2023)
